Reference: US20260306460A1, “COMPOSITION FOR REMOVING AND INHIBITING SENESCENT CELLS, AND USES THEREOF” (LIFECEUTIX CO., LTD., priority 2023, published 2026)
*1 amine or outer side, *2 acyl side, *3 side chain or, on linkers, in order; H or OH if unused. Where a SMILES comes first, the peptide text is derived from it. Bridges are numbered along the chain shown (N, C = ends). [ ]: non-standard residue; d: D form. The star is where a group is joined. X1 = CC[C@H](C)[C@@H](N[*:1])[C@@H](O)CC(=O)O[C@H](C(=O)[C@H](C)C(=O)[*:2])C(C)C; NMeY = CN[C@@H](Cc1ccc(O)cc1)C(=O)O; dNMeL = CN[C@H](CC(C)C)C(=O)O; Pyruvoyl = CC(=O)C(=O)*

What was measured:
[1] = system: senescent cells; assay: Viability of senescent cells (CellTiter-Glo), Example 17, Table 13; conditions: Homo sapiens, read-out: Survival (%)
Description: Cells induced to undergo senescence by doxorubicin treatment were treated with test compound at designated concentrations and measured using the CellTiter-Glo Luminescent Cell Viability Assay (Promega).

[2] = system: senescent A549 cells; assay: Viability of senescent A549 cells (CellTiter-Glo), Example 18, Table 15; conditions: Homo sapiens, A549, read-out: Survival (%)
Description: Senescence-induced cancer cells treated with doxorubicin were treated with the test compound at designated concentrations, and cell viability was measured using the CellTiter-Glo Luminescent Cell Viability Assay (Promega).

SMILES	viability at 1.1 µM [1] [%]	viability at 10 µM [1] [%]	viability at 1.1 µM [2] [%]	viability at 10 µM [2] [%]	viability at 30 µM [1] [%]	viability at 30 µM [2] [%]	viability at 90 µM [2] [%]	viability at 90 µM [1] [%]
O=C1Nc2ccccc2/C1=C1/Nc2ccc(C(=O)NCC3CCN(C(=O)CCl)CC3)cc2C1=O [LX-5328]	54.3	2	62.7	0.4	–	–	–	–
CC(C)(C)OC(=O)NC1CCN(c2ccc(-c3cnc4[nH]cc(C(=O)C(=O)NCCc5ccccn5)c4c3)cn2)CC1 [LX-5341]	99.1	48.5	94.6	55.4	3.5	13.7	–	–
C#Cc1nc(C(=O)N2[C@@H](CCCC)Cc3cc(C=C)ccc3[C@@H]2c2ccc(NC34CC5CC(CC(C5)C3)C4)cc2)cs1 [LX-5362]	42.5	–	61.8	–	–	–	–	–
C[C@H]1Oc2cc(cnc2N)-c2c(nn(C)c2C#N)CN(C)C(=O)c2ccc(F)cc21 [LX-5449, Lorlatinib]	89.1	44.1	91.3	44.3	8.7	2.4	–	–
NC(=O)c1ccc(-c2cc3c(NC4CCS(=O)(=O)CC4)cccc3n2CC(F)(F)F)cc1 [LX-5904]	103	25.9	95.4	45.2	2.2	10.9	–	–
C=C(C#N)CNc1c(OC)ccc2ccc(-c3ccc(S(C)(=O)=O)cn3)cc12 [LX-5906]	97.2	30.7	98.7	41.5	0.4	5.9	–	–
C=C(CN1Cc2c(ccc3ccc(-c4cc(NC(C)=O)cc(OC)c4)cc23)C1=O)C(N)=O [LX-5907]	95.5	19.5	91.8	39.4	1.7	14.4	–	–
NS(=O)(=O)OC[C@@H]1C[C@@H](n2ccc3c(N[C@H]4CCc5ccccc54)ncnc32)C[C@@H]1O [LX-6202, Pevonedistat]	1.5	–	53.3	–	–	–	–	–
COc1cc(Nc2ncc3c(n2)-c2ccc(Cl)cc2C(c2c(F)cccc2OC)=NC3)ccc1C(=O)O [LX-6203, Alisertib]	75.1	13.1	96.4	30.7	–	2.1	–	–
CCN(CCCOc1ccc2c(Nc3cc(CC(=O)Nc4cccc(F)c4)n[nH]3)ncnc2c1)CCOP(=O)(O)O [LX-6205, Barasertib]	3.8	–	57.4	–	–	–	–	–
CC[C@@H]1C(=O)N(C)c2cnc(Nc3ccc(C(=O)N[C@H]4CC[C@H](N5CCN(CC6CC6)CC5)CC4)cc3OC)nc2N1C(C)C [LX-6207, Volasertib]	68.7	8.6	88.2	41	–	9.4	–	–
CC[C@H](C)[C@H]1NC(=O)[C@@H](NC(=O)[C@@H](CC(C)C)N(C)C(=O)[C@@H]2CCCN2C(=O)C(C)=O)[C@@H](C)OC(=O)[C@H](Cc2ccc(OC)cc2)N(C)C(=O)[C@@H]2CCCN2C(=O)[C@H](CC(C)C)NC(=O)[C@@H](C)C(=O)[C@H](C(C)C)OC(=O)C[C@@H]1O [LX-6212, Plitidepsin] (Pyruvoyl-P[dNMeL]T[X1]LP[NMeY](Me); ester 3-C)	52.3	–	75.7	0.9	–	–	–	–
Cc1cccc2c1NC(=O)[C@@H](NC(=O)[C@H](CCC(F)(F)F)[C@H](CCC(F)(F)F)C(N)=O)N=C2c1cccc(F)c1 [LX-6514]	97.2	63.3	107	51.2	2.7	0.2	–	–
CCNCC[C@H](O)CNCCCCNC[C@@H](O)CCNCC [LX-6516, Ivospemin]	93.3	71.1	91.7	79.6	31.8	27.6	–	–
Nc1nc2nc[nH]c2c(=S)[nH]1 [LX-6530, Thioguanine]	106	112	97.9	83.9	46.1	61.1	10.3	–
C[C@@]12C[C@@]3(O)O[C@@H](O1)[C@]1(COC(=O)c4ccccc4)[C@H]3C[C@@]12O[C@@H]1O[C@H](CO)[C@@H](O)[C@H](O)[C@H]1O [LX-6804, Paeoniflorin]	87.5	28.5	78.8	40.8	–	8.4	–	–
Nc1cc(F)ccc1NC(=O)c1ccc(CNC(=O)/C=C/c2cccnc2)cc1 [LX-6809, Chidamide]	87.5	53.3	100	63.7	17.8	23.9	–	–
COc1ccc(F)cc1C(=O)NCc1ccc(-c2nn([C@@H](C)C(F)(F)F)c(N)c2C(N)=O)cc1 [LX-6981, Pirtobrutinib]	0.2	–	43.1	–	–	–	–	–

SMILES	viability at 1.1 µM [1] [%]	viability at 10 µM [1] [%]	viability at 1.1 µM [2] [%]	viability at 10 µM [2] [%]	viability at 30 µM [1] [%]	viability at 30 µM [2] [%]	viability at 90 µM [2] [%]	viability at 90 µM [1] [%]
COc1ccc(CN2C3CC2CN(c2ccc(-c4cc(OCC(C)(C)O)cn5ncc(C#N)c45)cn2)C3)cn1 [LX-6988, Selpercatinib]	93.5	53.7	98.2	46.3	3.7	5.7	–	–
CCCCCCCC/C(=C\CCCCCCCC(=O)O)[N+](=O)[O-] [LX-7111, 10-Nitrooleic acid]	78.1	22	79.2	43.7	–	0.8	–	–
O=c1sn(-c2cccc3ccccc23)c(=O)n1Cc1ccccc1 [LX-7121, Tideglusib]	94.7	57.9	76.5	52.4	3.9	12.8	–	–
COc1ccc(C[C@@H](C)[C@@H](C)Cc2ccc(OC)c(OC)c2)cc1OC [LX-7122, Terameprocol]	109	94.4	118	71.3	39.3	15.7	–	–
Cn1cc(C2=C(c3cn(C4CCN(Cc5ccccn5)CC4)c4ccccc34)C(=O)NC2=O)c2ccccc21 [LX-7135, Enzastaurin]	75.7	–	94.7	5.7	–	–	–	–
Cc1ccccc1CN1C(=O)C2=C(CCN(Cc3ccccc3)C2)N2CCN=C12 [LX-7261, Dordaviprone]	63.7	–	52.4	–	–	–	–	–
O=C1C2=C(CCN(Cc3ccccc3)C2)N2CCN=C2N1Cc1ccc(F)cc1F [LX-7262]	52.8	–	69.5	–	–	–	–	–
Nc1ncn([C@H]2C[C@@H](O)[C@@H](CO)S2)c(=O)n1 [LX-7288, 4′-thio-5-aza-2′-deoxycytidine]	41.8	–	48.3	–	–	–	–	–
N=C(NC(=N)N1CCCC1)Nc1ccc(OC(F)(F)F)cc1 [LX-7403, Lixumistat]	94.5	72.3	99.5	52.7	38.4	7.5	–	–
C#CCC(Cc1cnc2nc(N)nc(N)c2n1)c1ccc(C(=O)N[C@@H](CCC(=O)O)C(=O)O)cc1 (stereo partly shown) [LX-7405, Pralatrexate]	100	79	94.7	78.4	40.6	12.1	–	–
CS(=O)(=O)c1ccc(Oc2cc(F)cc(C#N)c2)c2c1[C@H](O)[C@H](F)[C@@H]2F [LX-7451, Belzutifan]	105	39.2	100	68.7	–	10.7	–	–
N[C@@H](CCC(=O)N[C@@H](CS(=O)(=O)CCOP(=O)(N(CCCl)CCCl)N(CCCl)CCCl)C(=O)N[C@@H](C(=O)O)c1ccccc1)C(=O)O [LX-7463, Canfosfamide]	88.8	32.1	96.5	43.3	–	0.1	–	–
NS(=O)(=O)NCCNc1nonc1C(=NO)Nc1ccc(F)c(Br)c1 [LX-8804, Epacadostat]	54.5	–	71.5	2.1	–	–	–	–
NCCCC(O)(P(=O)(O)O)P(=O)(O)O [LX-9105, Alendronate]	102	96	105	96.2	89.9	57.1	6.9	4.2
Cc1ncc([N+](=O)[O-])n1CCO [LX-9107, Metronidazole]	106	87.3	95.6	77.8	26.2	5	–	–
COc1cc(Cc2cnc(N)nc2N)cc(OC)c1OC [LX-9114, Trimethoprim]	102	88.6	95.2	74.4	16.1	20.7	–	–
CC(C)C[C@H](CN)CC(=O)O [LX-9131, Pregabalin]	81.9	47.7	91.7	83.3	13.2	57.9	12.4	–
CCOC(=O)C1=CCCC[C@H]1S(=O)(=O)Nc1ccc(F)cc1Cl [LX-9137, Resatorvid]	90.5	43.8	91.8	37.2	14.6	8.8	–	–
